# Measured values reported in the NIST ThermoML archive (doi:10.1016/j.jct.2013.03.004).
# Numbers after ± are expanded uncertainties.
# Settings: 101 kPa, Liquid mixture 1, Drop volume
smiles,measurement,setting,value
Cc1ccccc1 [toluene] + O,interfacial tension,293.2 K,37.2 ± 0.3 mN/m
same,interfacial tension,298.2 K,36.3 ± 0.3 mN/m
same,interfacial tension,303.2 K,35.7 ± 0.3 mN/m
same,interfacial tension,308.2 K,35.2 ± 0.3 mN/m
same,interfacial tension,313.2 K,34.7 ± 0.3 mN/m
